Assay results from ChEMBL document CHEMBL4334512, “Rationally Designed, Conformationally Constrained Inverse Agonists of RORγt-Identification of a Potent, Selective Series with Biologic-Like in Vivo Efficacy” (J Med Chem, 2019).
pEC50, pIC50: −log10 of the molar value.

Legend:
[1] = Half life in human liver microsomes; assay type: ADME, Microsome
[2] = Half life in rat liver microsomes; assay type: ADME, Microsome
[3] = Half life in mouse liver microsomes; assay type: ADME, Microsome
[4] = Unbound fraction in human serum; assay type: ADME, cell-free
[5] = biological target: T1, Nuclear receptor subfamily 1 group I member 2 (Homo sapiens, UniProt O75469); assay: Activity at PXR (unknown origin)
T1 sequence (O75469 whole entry): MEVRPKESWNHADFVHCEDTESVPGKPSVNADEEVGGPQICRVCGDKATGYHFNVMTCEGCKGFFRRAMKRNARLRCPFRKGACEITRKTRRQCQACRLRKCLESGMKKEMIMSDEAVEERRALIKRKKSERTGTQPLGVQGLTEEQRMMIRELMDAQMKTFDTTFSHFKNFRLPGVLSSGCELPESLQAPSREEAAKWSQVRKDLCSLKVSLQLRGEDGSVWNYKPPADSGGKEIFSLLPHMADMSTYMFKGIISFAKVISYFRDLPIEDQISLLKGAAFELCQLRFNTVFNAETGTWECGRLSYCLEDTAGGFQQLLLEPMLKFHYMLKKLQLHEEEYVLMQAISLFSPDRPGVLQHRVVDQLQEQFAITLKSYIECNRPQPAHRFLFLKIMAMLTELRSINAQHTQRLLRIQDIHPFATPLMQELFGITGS

[6] = biological target: T2, Nuclear receptor ROR-alpha (Homo sapiens, UniProt P35398); assay: Activity at RORalpha (unknown origin)
T2 sequence (P35398 whole entry): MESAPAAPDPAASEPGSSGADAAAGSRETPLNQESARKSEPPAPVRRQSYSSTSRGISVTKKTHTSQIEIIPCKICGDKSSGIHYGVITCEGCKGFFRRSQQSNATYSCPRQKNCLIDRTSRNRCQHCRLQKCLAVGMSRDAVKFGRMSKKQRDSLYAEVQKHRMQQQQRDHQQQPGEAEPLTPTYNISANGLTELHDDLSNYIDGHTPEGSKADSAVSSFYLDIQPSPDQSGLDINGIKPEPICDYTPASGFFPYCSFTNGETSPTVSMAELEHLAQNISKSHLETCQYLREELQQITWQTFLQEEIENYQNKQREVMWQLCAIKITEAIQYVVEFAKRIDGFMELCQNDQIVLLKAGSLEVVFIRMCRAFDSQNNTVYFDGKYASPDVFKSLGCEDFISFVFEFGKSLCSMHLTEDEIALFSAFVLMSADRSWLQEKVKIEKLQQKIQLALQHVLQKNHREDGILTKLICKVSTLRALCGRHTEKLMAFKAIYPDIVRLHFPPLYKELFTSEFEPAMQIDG

[7] = biological target: T3, Nuclear receptor ROR-beta (Homo sapiens, UniProt Q92753); assay: Activity at RORbeta (unknown origin)
T3 sequence (Q92753 whole entry): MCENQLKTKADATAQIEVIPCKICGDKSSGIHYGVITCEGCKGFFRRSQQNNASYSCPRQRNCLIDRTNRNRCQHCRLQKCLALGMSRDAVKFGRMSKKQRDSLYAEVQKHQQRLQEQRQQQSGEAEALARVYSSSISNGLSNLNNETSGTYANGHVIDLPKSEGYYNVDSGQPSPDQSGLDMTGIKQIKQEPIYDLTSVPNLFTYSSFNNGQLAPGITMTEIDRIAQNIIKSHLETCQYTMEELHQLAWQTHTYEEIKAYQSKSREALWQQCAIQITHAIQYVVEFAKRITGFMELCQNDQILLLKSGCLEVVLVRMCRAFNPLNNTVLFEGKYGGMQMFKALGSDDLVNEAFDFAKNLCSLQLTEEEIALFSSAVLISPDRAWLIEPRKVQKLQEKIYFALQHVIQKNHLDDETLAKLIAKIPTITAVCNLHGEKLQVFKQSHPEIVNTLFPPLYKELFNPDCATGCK

[8] = biological target: T4, Oxysterols receptor LXR-alpha (Homo sapiens, UniProt Q13133); assay: Activity at LXRalpha (unknown origin)
T4 sequence (Q13133 whole entry): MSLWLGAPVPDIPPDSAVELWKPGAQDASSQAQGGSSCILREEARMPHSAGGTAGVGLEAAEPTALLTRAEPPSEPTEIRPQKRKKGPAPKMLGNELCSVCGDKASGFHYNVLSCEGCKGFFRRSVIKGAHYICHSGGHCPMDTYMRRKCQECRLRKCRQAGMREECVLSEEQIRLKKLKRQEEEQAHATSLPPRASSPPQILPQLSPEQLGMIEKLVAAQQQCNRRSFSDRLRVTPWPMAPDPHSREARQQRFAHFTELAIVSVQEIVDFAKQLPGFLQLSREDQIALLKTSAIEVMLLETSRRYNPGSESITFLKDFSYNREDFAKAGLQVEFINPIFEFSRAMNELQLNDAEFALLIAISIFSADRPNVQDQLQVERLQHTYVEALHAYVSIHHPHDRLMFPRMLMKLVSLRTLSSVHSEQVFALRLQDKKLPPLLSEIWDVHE

[9] = biological target: T5, Oxysterols receptor LXR-beta (Homo sapiens, UniProt P55055); assay: Activity at LXRbeta (unknown origin)
T5 sequence (P55055 whole entry): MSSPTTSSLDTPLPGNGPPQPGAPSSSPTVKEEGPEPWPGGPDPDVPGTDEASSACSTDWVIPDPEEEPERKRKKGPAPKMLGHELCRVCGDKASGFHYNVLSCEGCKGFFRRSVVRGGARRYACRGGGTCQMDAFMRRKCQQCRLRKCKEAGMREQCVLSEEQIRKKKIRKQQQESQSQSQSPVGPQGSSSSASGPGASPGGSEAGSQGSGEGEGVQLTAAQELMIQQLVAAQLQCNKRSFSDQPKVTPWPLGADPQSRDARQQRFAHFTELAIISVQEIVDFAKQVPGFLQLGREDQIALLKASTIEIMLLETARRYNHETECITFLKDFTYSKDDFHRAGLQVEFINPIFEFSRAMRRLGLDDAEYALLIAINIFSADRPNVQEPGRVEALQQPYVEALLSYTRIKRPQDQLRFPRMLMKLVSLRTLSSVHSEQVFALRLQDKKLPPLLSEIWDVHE

[10] = Cmax in Balb/c mouse at 10 mg/kg, po; assay type: ADME, organism-based; set-up: dose 10 mg/kg, route oral; details: in vivo
[11] = Drug level in Balb/c mouse at 10 mg/kg, po after 24 hrs; assay type: ADME, organism-based; details: in vivo, read-out: Drug uptake
[12] = biological target: T6, Nuclear receptor ROR-gamma (Homo sapiens, UniProt P51449); assay: Inverse agonist activity at full length human RORgammat expressed in human Jurkat cells assessed as inhibition of constitutive receptor activity incubated for 18 hrs by Gal4-Luc reporter gene assay; assay type: cell-based
T6 sequence (P51449 whole entry): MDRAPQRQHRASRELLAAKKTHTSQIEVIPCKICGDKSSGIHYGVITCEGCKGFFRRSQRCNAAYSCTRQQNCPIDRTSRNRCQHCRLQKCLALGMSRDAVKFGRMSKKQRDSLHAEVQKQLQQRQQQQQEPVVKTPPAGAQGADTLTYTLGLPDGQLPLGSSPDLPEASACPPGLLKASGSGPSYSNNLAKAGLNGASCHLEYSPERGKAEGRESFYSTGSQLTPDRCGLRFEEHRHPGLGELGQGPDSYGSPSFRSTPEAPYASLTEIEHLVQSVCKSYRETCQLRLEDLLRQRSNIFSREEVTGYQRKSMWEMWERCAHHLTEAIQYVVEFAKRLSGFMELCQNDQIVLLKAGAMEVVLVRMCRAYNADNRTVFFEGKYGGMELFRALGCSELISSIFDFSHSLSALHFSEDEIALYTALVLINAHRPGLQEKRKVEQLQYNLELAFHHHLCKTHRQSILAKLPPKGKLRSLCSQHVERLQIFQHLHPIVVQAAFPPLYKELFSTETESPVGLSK

[13] = biological target: T6, Nuclear receptor ROR-gamma; assay: Inverse agonist activity at RORgammat in CD3 and CD28-stimulated human whole blood assessed as reduction in IL17A production incubated for 1 hr before CD3 and CD28 stimulation for 20 hrs by AlphaLISA method; assay type: tissue-based

Row | half-life [1] [min] | half-life [2] [min] | half-life [3] [min] | fraction unbound [4] | pIC50 [5] | pIC50 [6] | pIC50 [7] | pIC50 [8] | pIC50 [9] | Cmax [10] [µM] | concentration at 24 h [11] [nM] | pEC50 [12] | pEC50 [13] | SMILES
1 | > 120 | > 120 | > 120 | 0.024 | < 4.40 | < 5.00 | < 5.00 | < 5.00 | < 5.00 | 10 | 710 |  |  | CN1C[C@H]2N(C(=O)[C@H]3CC[C@H](C(=O)O)CC3)CC[C@@]2(S(=O)(=O)c2ccc(F)cc2)c2ccc(C(F)(C(F)(F)F)C(F)(F)F)cc21
2 | > 120 | > 120 | > 120 |  | < 4.40 | < 5.00 | < 5.00 | < 5.00 | < 5.00 | 6.9 | 740 |  |  | O=C(O)[C@H]1CC[C@H](C(=O)N2CC[C@@]3(S(=O)(=O)c4ccccc4)c4ccc(C(F)(C(F)(F)F)C(F)(F)F)cc4CC[C@@H]23)CC1
3 | 99 | > 120 | > 120 |  | < 4.40 | < 5.00 | < 5.00 | < 5.00 | < 5.00 | 2.5 | 260 |  |  | O=C(O)[C@H]1CC[C@](O)(C(=O)N2CC[C@@]3(S(=O)(=O)c4ccc(F)cc4)c4ccc(C(F)(C(F)(F)F)C(F)(F)F)cc4CC[C@@H]23)CC1
4 | > 120 | > 120 | > 120 |  | < 4.40 | < 5.00 | < 5.00 | < 5.00 | < 5.00 | 8.6 | 1600 |  |  | O=C(O)[C@H]1CC[C@H](C(=O)N2CC[C@@]3(S(=O)(=O)c4ccc(F)cc4)c4ccc(C(F)(C(F)(F)F)C(F)(F)F)cc4CC[C@@H]23)CC1
5 | > 120 | > 120 | > 120 |  | < 4.40 | < 5.00 | < 5.00 | < 5.00 | < 5.00 |  |  | 7.82 | 7.34 | O=C(O)[C@H]1CC[C@](F)(C(=O)N2CC[C@@]3(S(=O)(=O)c4ccc(F)cc4)c4ccc(C(F)(C(F)(F)F)C(F)(F)F)cc4CC[C@@H]23)CC1
6 | > 120 | 84 | 26 | 0.003 | < 4.40 | < 5.00 | < 5.00 | < 5.00 | < 5.00 |  |  | 7.70 | 7.08 | CN1C[C@H]2N(C(=O)C3(O)CCS(=O)(=O)CC3)CC[C@@]2(S(=O)(=O)c2ccc(F)cc2)c2ccc(C(F)(C(F)(F)F)C(F)(F)F)cc21
7 | > 120 | > 120 | > 120 | 0.005 | < 4.40 | < 5.00 | < 5.00 | < 5.00 | < 5.00 | 13 | 3000 |  |  | CCN1C[C@H]2N(C(=O)[C@H]3CC[C@H](C(=O)O)CC3)CC[C@@]2(S(=O)(=O)c2ccc(F)cc2)c2ccc(C(F)(C(F)(F)F)C(F)(F)F)cc21
